The text below walks through data of US20140148432A1, “Compounds for the Treatment of Neurological Disorders” (priority 2009, published 2014).

Data set [1] addresses GluN1/GluN2B receptors (Homo sapiens, UniProt Q05586+Q13224). The experiment in a line: IC50 of GluN1/GluN2B receptors expressed in Xenopus oocytes (two electrode voltage-clamp), human. The format is cell-based. The conditions noted are these: for IC50: 30 μM glycine. Background: In two-electrode clamp one electrode senses voltage and the other passes current.
The target in data set [2] is GluN1/GluN2B receptors (Rattus norvegicus, UniProt P35439+Q00960). The experiment in a line: IC50 of GluN1/GluN2B receptors expressed in Xenopus oocytes (two electrode voltage-clamp), rat. The format is cell-based. The conditions noted are these: pH 7.4, 50 μM glutamate, 30 μM glycine. The protocol: (§1) Stage V and VI oocytes were surgically removed from the ovaries of large, well-fed and healthy Xenopus laevis anesthetized with 3-amino-benzoic acid ethyl ester (3 gm/l). Clusters of isolated oocytes were incubated with 292 U/ml Worthington (Freehold, N.J.) type IV collagenase or 1.3 mg/ml collagenase (Life Technologies, Gaithersburg, Md.; 17018-029) for 2 hr in Ca^2+-free solution comprised of (in mM) 115 NaCl, 2.5 KCl, and 10 HEPES, pH 7.5, with slow agitation to remove the follicular cell layer. Oocytes were then washed in the same solution supplemented with 1.8 mM CaCl2 and maintained in Barth's solution comprised of (in mM): 88 NaCl, 1 KCl, 2.4 NaHCO3, 10 HEPES, 0.82 MgSO4, 0.33 Ca(NO3)2, and 0.91 CaCl2 and supplemented with 100 μg/ml gentamycin, 10 μg/ml streptomycin, and 10 μg/ml penicillin. Oocytes were manually defolliculated and injected within 24 hrs of isolation with 3-5 ng of GluN1 subunit cRNA and 7-10 ng of GluN2 cRNA subunit in a 50 nl volume, and incubated in Barth's solution at 18° C. for 2-7 d. Glass injection pipettes had tip sizes ranging from 10-20 microns, and were backfilled with mineral oil. cRNA was synthesized from linearized template cDNA for rat glutamate receptor subunits according to manufacturer specifications (Ambion).
(§2) Two electrode voltage-clamp recordings were made 2-7 days post-injection. Oocytes were placed in a dual-track plexiglass recording chamber with a single perfusion line that splits in a Y-configuration to perfuse two oocytes. Dual recordings were made at room temperature (23° C.) using two Warner 00725B two-electrode voltage clamp amplifiers, arranged as recommended by the manufacturer. Glass microelectrodes (1-10 Megaohms) were filled with 300 mM KCl (voltage electrode) or 3 M KCl (current electrode). The bath clamps communicated across silver chloride wires placed into each side of the recording chamber, both of which were assumed to be at a reference potential of 0 mV. Oocytes were perfused with a solution comprised of (in mM) 90 NaCl, 1 KCl, 10 HEPES, […] and 0.5 BaCl2; pH was adjusted by addition of 1-3 M NaOH or HCl. Oocytes were recorded under voltage clamp at −40 mV. Final concentrations for glutamate and glycine were 50 μM and 30 μM, respectively. Concentration-response curves for experimental compounds were obtained by applying in successive fashion maximal glutamate/glycine, followed by glutamate/glycine plus variable concentrations of experimental compounds. Dose response curves consisting of 4 to 8 concentrations were obtained in this manner. The baseline leak current at −40 mV was measured before and after recording, and the full recording linearly corrected for any change in leak current. The level of inhibition by applied experimental compounds was expressed as a percent of the initial glutamate response, and averaged together across oocytes from multiple experiments. Results were pooled, and the average percent responses at antagonist concentrations were fit by the equation,
Percent Response=(100−minimum)/(1+([conc]/IC50)^nH)+minimum
where minimum is the residual percent response in saturating concentration of the experimental compounds, IC50 is the concentration of antagonist that causes half of the achievable inhibition, and nH is a slope factor describing steepness of the inhibition curve. Minimum was constrained to be greater than or equal to 0.
Recordings were made at pH 6.9, pH 7.4, and pH 7.6. The pH Boost ratio calculated by dividing the IC50 measured at pH 7.6 by the IC50 measured at pH 6.9.

Data set [3] addresses GluN1/GluN2A subtype of NMDA receptors (Rattus norvegicus, UniProt Q00959). The experiment in a line: NMDA receptor subunit selectivity, GluN1/GluN2A in Xenopus oocytes. The format is cell-based. The conditions noted are these: 2 min; 10 μM antagonist with 50 μM glutamate and 30 μM glycine, two min; agonists alone = 100%; read-out: GluN2A % Current Remaining. The protocol: as §1, §2
(§3) GluN1/GluN2A and GluN1/GluN2D subtype of NMDA receptors were expressed in Xenopus laevis as described in Example 13. Here, a 10 μM concentration of the antagonist was perfused with 50 μM glutamate and 30 μM glycine onto the oocyte for two min and the remaining current in the presence of the antagonist was compared to the maximal current obtained with 50 μM glutamate and 30 μM glycine alone (defined as 100%).

Data set [4] concerns the target GluN1/GluN2D subtype of NMDA receptors (Rattus norvegicus, UniProt Q62645). The experiment in a line: NMDA receptor subunit selectivity, GluN1/GluN2D in Xenopus oocytes. The format is cell-based. As to conditions: 2 min; 10 μM antagonist with 50 μM glutamate and 30 μM glycine, two min; agonists alone = 100%; read-out: GluN2D % Current Remaining. How it is done:
as §1, §2, §3

Another data set deals with α1-Adrenergic. Put plainly: α1-Adrenergic binding, displacement of [3H]-prazosin from brain membranes. As to conditions: 3 μM test compound, 0.25 nM [3H]-prazosin, Wistar rat brain membranes, duplicate. The protocol: (§4) Binding to the human ether-a-go-go potassium channel (hERG) expressed in HEK293 cells by displacement of 1.5 nM [3H]-astemizole. Each result represents the average of displacement binding experiments done in duplicate at 10 uM of the test compound. Percent displacement of 0.25 nM [3H]-prazosin from Wistar rat brain membranes. Each result represents the average of displacement binding experiments done in duplicate at 3 μM of the test compound.

In data set [5] the target is GluN1/GluN2B-NMDA receptors (Homo sapiens, UniProt Q05586+Q13224). Put plainly: Noncompetitive block of GluN1/GluN2B-NMDA receptors in Xenopus oocytes. The format is cell-based. The conditions noted are these: 0.1 μM compound 24; increasing glutamate (30 μM glycine) or increasing glycine (30 μM glutamate). How it is done:
Results shown are the mean±SEM of 7 (panel A) or 6 (panel B) oocytes.
Stage V and VI oocytes were surgically removed from the ovaries of large, well-fed and healthy Xenopus laevis anesthetized with 3-amino-benzoic acid ethyl ester (3 gm/l). Clusters of isolated oocytes were incubated with 292 U/ml Worthington (Freehold, N.J.) type IV collagenase or 1.3 mg/ml collagenase (Life Technologies, Gaithersburg, Md.; 17018-029) for 2 hr in Ca^2+-free solution comprised of (in mM) 115 NaCl, 2.5 KCl, and 10 HEPES, pH 7.5, with slow agitation to remove the follicular cell layer. Oocytes were then washed in the same solution supplemented with 1.8 mM CaCl2 and maintained in Barth's solution comprised of (in mM): 88 NaCl, 1 KCl, 2.4 NaHCO3, 10 HEPES, 0.82 MgSO4, 0.33 Ca(NO3)2, and 0.91 CaCl2 and supplemented with 100 μg/ml gentamycin, 10 μg/ml streptomycin, and 10 μg/ml penicillin. […]
Two electrode voltage-clamp recordings were made 2-7 days post-injection. […] Oocytes were recorded under voltage clamp at −40 mV. […] The baseline leak current at −40 mV was measured before and after recording, and the full recording linearly corrected for any change in leak current. The level of inhibition by applied experimental compounds was expressed as a percent of the initial glutamate response, and averaged together across oocytes from multiple experiments. […]

Data set [6] deals with T1, human ether-a-go-go potassium channel (hERG) expressed in HEK293 cells (Homo sapiens, UniProt Q12809).
T1 construct: expressed in transfected cells; host or cells: HEK293 cells
T1 sequence (Q12809 whole entry): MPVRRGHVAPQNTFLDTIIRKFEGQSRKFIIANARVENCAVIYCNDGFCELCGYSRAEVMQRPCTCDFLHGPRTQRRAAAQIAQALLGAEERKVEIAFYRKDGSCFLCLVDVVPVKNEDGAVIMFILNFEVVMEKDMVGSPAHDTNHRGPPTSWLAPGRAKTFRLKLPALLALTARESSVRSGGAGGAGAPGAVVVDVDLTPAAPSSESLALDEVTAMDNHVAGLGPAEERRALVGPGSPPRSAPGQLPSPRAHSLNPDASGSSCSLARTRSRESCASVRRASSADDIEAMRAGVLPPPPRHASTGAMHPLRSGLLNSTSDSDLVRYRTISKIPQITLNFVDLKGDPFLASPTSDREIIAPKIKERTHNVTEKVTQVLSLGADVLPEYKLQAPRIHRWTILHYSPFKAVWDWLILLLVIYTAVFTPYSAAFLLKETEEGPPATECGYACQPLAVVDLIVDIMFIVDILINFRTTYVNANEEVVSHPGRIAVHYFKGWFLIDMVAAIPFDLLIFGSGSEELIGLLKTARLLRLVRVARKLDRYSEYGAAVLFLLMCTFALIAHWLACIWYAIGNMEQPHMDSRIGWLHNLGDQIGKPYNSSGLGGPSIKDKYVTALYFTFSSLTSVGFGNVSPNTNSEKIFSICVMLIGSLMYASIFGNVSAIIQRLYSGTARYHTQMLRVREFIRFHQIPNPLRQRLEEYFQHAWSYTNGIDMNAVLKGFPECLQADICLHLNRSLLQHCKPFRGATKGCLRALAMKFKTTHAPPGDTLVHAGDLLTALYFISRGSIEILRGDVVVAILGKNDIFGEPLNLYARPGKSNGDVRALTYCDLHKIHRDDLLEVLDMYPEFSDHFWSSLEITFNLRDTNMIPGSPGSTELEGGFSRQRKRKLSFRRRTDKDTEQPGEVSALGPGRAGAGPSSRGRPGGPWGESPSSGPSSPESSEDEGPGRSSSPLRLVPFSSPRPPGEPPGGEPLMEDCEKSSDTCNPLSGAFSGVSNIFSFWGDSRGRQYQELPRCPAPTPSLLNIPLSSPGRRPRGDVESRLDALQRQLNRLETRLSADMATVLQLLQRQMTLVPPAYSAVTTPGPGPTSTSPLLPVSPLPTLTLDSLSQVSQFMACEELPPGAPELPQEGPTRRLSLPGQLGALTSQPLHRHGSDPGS
The experiment in a line: hERG binding, displacement of [3H]-astemizole. The conditions noted are these: 10 μM test compound, 1.5 nM [3H]-astemizole, duplicate. How it is done: as §4
A general note: Block of hERG is tested as a sign of cardiac risk.

Structures are written as SMILES. Like-named read-outs stand apart in the source and are kept apart here.

GluN1/GluN2B receptors (Homo sapiens, UniProt Q05586+Q13224), sequence (Q13224 27-1484, other chains not shown): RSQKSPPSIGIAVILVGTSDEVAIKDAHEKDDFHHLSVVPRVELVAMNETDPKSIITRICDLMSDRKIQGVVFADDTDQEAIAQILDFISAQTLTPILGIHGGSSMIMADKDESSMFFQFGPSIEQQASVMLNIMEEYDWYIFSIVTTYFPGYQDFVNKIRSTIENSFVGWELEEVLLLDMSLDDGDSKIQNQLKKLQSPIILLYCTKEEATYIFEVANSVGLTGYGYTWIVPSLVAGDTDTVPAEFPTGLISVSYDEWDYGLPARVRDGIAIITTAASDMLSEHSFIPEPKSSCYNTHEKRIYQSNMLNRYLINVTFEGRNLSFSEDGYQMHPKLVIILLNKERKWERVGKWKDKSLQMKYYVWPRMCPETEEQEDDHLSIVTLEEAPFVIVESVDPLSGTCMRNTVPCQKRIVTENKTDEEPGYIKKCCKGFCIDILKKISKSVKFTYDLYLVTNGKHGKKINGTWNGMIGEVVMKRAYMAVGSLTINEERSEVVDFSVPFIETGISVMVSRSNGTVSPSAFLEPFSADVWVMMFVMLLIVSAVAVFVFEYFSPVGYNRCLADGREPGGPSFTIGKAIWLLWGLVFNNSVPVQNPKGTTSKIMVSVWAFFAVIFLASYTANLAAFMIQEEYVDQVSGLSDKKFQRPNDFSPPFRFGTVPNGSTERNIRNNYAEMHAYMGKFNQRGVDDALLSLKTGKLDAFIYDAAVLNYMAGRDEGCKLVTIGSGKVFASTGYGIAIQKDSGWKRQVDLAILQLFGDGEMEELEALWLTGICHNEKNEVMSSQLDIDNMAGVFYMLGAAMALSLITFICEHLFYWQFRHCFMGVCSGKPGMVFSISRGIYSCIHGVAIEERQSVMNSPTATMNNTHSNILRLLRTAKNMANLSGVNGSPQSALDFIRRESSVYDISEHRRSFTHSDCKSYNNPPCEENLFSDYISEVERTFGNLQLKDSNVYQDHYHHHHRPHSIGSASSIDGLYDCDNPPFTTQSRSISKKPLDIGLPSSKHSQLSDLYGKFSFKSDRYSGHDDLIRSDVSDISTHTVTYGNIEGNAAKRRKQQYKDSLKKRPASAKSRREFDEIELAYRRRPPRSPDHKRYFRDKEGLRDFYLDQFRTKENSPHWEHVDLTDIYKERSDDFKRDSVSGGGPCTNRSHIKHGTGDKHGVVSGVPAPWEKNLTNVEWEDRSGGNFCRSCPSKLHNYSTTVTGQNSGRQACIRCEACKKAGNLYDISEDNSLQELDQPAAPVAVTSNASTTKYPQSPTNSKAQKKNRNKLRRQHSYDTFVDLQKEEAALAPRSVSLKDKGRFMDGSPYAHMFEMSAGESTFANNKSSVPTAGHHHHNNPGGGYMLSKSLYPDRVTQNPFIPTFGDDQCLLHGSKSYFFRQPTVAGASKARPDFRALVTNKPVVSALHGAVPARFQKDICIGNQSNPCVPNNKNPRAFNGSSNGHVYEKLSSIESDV
GluN1/GluN2A subtype of NMDA receptors, sequence (Q00959 23-1464, other chains not shown): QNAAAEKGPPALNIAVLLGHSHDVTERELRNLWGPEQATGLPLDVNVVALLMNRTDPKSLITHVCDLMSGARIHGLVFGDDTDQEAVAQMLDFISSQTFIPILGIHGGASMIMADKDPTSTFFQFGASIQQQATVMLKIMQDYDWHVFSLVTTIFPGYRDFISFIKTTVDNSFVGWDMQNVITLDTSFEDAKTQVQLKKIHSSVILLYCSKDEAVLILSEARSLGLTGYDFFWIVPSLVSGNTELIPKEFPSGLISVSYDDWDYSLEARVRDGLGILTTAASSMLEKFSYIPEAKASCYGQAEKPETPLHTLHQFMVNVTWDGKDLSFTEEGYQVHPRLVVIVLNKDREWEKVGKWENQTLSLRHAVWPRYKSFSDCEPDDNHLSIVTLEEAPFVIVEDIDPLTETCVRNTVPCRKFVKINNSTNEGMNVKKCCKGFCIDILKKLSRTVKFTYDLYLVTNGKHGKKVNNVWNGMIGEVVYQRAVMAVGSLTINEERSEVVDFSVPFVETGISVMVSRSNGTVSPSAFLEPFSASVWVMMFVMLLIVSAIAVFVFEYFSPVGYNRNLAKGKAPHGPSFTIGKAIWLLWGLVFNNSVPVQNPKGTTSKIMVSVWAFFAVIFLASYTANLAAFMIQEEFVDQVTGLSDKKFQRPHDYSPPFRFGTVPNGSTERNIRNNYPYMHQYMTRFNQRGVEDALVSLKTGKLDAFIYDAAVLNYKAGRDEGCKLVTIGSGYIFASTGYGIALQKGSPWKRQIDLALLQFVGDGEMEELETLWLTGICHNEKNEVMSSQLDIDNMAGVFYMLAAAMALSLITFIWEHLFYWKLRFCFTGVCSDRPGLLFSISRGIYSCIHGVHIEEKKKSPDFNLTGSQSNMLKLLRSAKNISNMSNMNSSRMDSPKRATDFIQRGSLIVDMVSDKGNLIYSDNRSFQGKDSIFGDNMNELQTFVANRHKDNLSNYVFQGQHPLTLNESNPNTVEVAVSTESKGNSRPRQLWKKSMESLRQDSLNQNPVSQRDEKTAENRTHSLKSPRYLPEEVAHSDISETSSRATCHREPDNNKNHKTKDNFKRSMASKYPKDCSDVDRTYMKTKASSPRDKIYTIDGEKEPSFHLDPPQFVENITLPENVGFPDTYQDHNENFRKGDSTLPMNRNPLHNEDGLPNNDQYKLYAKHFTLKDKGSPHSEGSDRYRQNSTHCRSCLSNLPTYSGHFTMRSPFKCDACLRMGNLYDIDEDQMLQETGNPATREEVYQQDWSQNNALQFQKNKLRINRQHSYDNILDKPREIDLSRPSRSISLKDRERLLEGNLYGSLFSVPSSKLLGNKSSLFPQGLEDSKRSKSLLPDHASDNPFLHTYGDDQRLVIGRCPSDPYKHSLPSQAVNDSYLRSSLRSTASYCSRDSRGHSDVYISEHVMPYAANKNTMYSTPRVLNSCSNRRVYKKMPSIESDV

Regarding `O=C1CCc2cc(OCC3CN(C(=O)Nc4ccc(C(F)(F)F)cc4)C3)ccc2N1` [Compound 24, 3-(((2-oxo-1,2,3,4-tetrahydroquinolin-6-yl)oxy)methyl)-N-(4-(trifluoromethyl)phenyl)azetidine-1-carboxamide], the “Human pH Boost Ratio (IC50 pH 7.6/IC50 pH 6.9)” value at GluN1/GluN2B receptors [1] (IC50 at pH 7.6 divided by IC50 at pH 6.9) worked out at 3.6. For the same molecule, the 50% inhibitory concentration (IC50) on GluN1/GluN2B receptors [1] (pH 6.9, 50 μM glutamate, read-out: Human pH 6.9 IC50) amounted to 27 nM; at GluN1/GluN2B receptors [1] (pH 7.4, 50 μM glutamate, read-out: Human pH 7.4 IC50) it was 74 nM; at GluN1/GluN2B receptors [2] it was 54 nM. Also, the remaining activity at 10 µM in data set [3] came to 94.2%; in data set [4], 84.5%. Further, in the data set on α1-Adrenergic, the “α1-Adrenergic binding % Displacement @ 3 μM” value stood at 12%. Further, in data set [5], the “Block on increasing glutamate and increasing glycine” value was “cannot overcome the block”. Besides, the “hERG Binding % Displacement @ 10 μM” value in data set [6] came out at 68%.

A word on the IC50: it is the concentration that gives 50% inhibition.
